From patent publication US20100184803A1, “Treatment of Lysosomal Storage Diseases” (priority 2007, published 2010) come the findings set out here.

SMILES strings stand for the structures. “Also recorded” adds a separate entry of the source.

Test [1] relates to UCH-L1. Nature of the test: Total amount and turnover of UCH-L1 in SH-SY5Y cells (pulse-chase, not shown). The format is cell-based.
In test [2] the test system is UCH-L1. The test can be described thus: Membrane association of UCH-L1 in SH-SY5Y cells (membrane fractionation, 2D electrophoresis, Western blotting). It counts as cell-based. To be noted: compared to cells treated with DMSO. Here is the method: Membrane fractionation: Cells were harvested by scraping and washed with PBS. Cell pellet was suspended in lysis buffer (50 mM Tris-HCl, 1 mM EDTA) supplemented with protease inhibitor cocktail (Sigma) and homogenized by passing through 26G needles 10 times. Suspension was clarified by spinning at 600 g for 5 minutes. Clarified suspension was ultracentrifuged at 100,000 g for 2 hours and separated into membrane and cytosol. Membrane fraction was washed with washing buffer (50 mM Tris-HCl, 1 mM EDTA 1 M NaCl), and pelleted each time with bench-top centrifuge.
2D electrophoresis: For the isolation of total cellular protein, cultured SH-SY5Y cells maintained as described above were rinsed with ice-cold PBS. Cells were lysed in 1 ml dSDS buffer (50 mM Tris-HCl, pH 8.0 0.1% SDS) supplemented with protease inhibitor cocktail. Lysates were boiled for 3 min, and were treated with Dnase and Rnase as described. […]
Western Blotting: Following transfer of SDS gels onto NC membrane, all membranes were blocked with 5% non-fat milk in TBST (50 mM Tris-HCl pH 7.4, 150 mM NaCl, 0.1% Tween 20), and incubated with primary antibody overnight with 1% BSA in TBST, washed three times with TBST, and incubated with horseradish peroxidase-conjugated secondary antibody for 1 hour (Promega). Bound antibodies were detected using enhanced chemiluminascence (NEM).

For the compound `COC(=O)[C@H](CCSC)NC(=O)c1ccc(NC[C@@H](N)CS)cc1-c1ccccc1` [FTI-277], in the test on UCH-L1 [1], the “total amount of UCH-L1” value is recorded as “reduced”. For the same compound, the “rate of turnover of UCH-L1” value in the test on UCH-L1 [1] (pulse-chase experiment not shown) is given as “increased”. In the test with UCH-L1 [2], the “amount of cytosolic UCH-L1” value was “without affecting” and the “amount of membrane bound UCH-L1 (membrane-associated, farnesylated species)” value is listed as “significant decrease; also recorded: decreased; also recorded: reducing”.
